Earlier results, collected in patent publication US20050150424A1, “Ink composition and inkjet recording method” (FUJI PHOTO FILM CO., LTD., priority 2003, published 2005).
Where two headings read alike, the source gives them in different places.

Details: in water at 25° C.

| SMILES | pKa (Table 4) | pKa |
| --- | --- | --- |
| CCCCC(CC)C(=O)O (centres unmarked) [2-Ethylhexanoic acid] | 2-Ethylhexanoic acid (pKa: 4.1) | – |
| C=C(C)C(=O)OCCOC(=O)c1ccccc1C(=O)O [2-methacryloyloxyethyl phthalate] | – | 4.0 |
| C=CC(=O)O [acrylic acid] | – | 3.6 |
| C=C(C)C(=O)OCCOP(=O)(O)O [ethylene glycol methacrylate phosphate] | – | 2.5 |
| C=C(C)C(=O)O [methacrylic acid] | – | 3.6 |
